{
  "source": "paper PMC11363900",
  "about": "“A single-pass type I membrane protein, mannose-specific L-type lectin, potentially involved in the adhesion and invasion of Cryptosporidium parvum” (Parasite, 2024)",
  "target": "T1, CpLTL (GST-CpLTL) (Cryptosporidium parvum, UniProt Q5CWG8)",
  "T1 construct": "gene cgd6_5140; lectin-leg-like domain (nucleotides 130-852 of the ORF; domain 44-284 aa of 469), without signal peptide and TM, GST fusion kept (pGEX-4T-1), E. coli Rosetta (DE3), about 48 kDa",
  "T1 sequence (Q5CWG8 entry or part of it)": "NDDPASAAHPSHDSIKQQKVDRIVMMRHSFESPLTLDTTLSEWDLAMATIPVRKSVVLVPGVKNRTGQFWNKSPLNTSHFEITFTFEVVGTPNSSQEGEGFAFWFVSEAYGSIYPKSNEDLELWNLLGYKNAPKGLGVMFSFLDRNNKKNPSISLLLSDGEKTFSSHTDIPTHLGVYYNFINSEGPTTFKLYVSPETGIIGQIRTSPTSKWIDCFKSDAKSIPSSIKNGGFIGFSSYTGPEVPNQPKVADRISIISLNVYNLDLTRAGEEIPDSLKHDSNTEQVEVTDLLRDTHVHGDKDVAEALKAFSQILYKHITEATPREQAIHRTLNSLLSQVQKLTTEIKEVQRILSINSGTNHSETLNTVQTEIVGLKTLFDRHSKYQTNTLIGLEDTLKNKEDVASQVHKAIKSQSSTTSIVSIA",
  "assay": "competition ELISA, immobilised GST-CpLTL, binding of horseradish peroxidase (mannose-rich glycoprotein), OD405",
  "details": "100 mM mannose, 50 μg/mL HRP, PBS, 4 °C overnight; competitive with HRP glycan",
  "data": [
    {"smiles": "OC[C@H]1OC(O)[C@@H](O)[C@@H](O)[C@@H]1O", "note": "(stereo partly shown) [mannose]", "values": [
      {"measurement": "competition ELISA, immobilised GST-CpLTL, binding of horseradish peroxidase (man)", "result": "Mannose showed competitive inhibition on the binding of HRP to GST-CpLTL protein"}
    ]}
  ]
}
